Laboratory results as given in patent publication US8361970B2, “Growth factor binding molecules” (University of South Florida, priority 2000, dated 2013).
Values joined by “and” are separate entries in the source; they are usually repeats but may differ in a detail not shown here. Equal entries are not always repeated. Where two headings read alike, the source gives them in different places. Positions of bridges follow the written chain, without caps; N, C: chain ends. Non-standard residues stand in square brackets, D forms with d. d2Nal = N[C@H](Cc1ccc2ccccc2c1)C(=O)O; dAbu = CC[C@@H](N)C(=O)O

What was measured:
Type in all cases: cell-based
[1] = test system: PDGF-stimulated Erk1/Erk2 activation; assay: Inhibition of PDGF-stimulated activation of MAPK Erk1/Erk2 (p44/p42) in NIH 3T3 cells; settings: NIH 3T3, PDGF stimulated
Experimental: (§1) Starved NIII 3T3 cells (PDGF-BB and PDGF-AA), NIH 3T3 cells overexpressing either EGFR (EGF) or Flk-1 (VEGF) are pre-treated with the indicated concentrations of GFB-111 for 5 minutes before 10 minutes of stimulation with PDGF-BB (10 ng/ml), PDGF-AA (10 ng/ml), EGF (100 ng/ml) and VEGF (50 ng/ml). Cell lysates are run on SDS-PAGE gels, then transferred to nitrocellulose and Western blotted with anti-phosphotyrosine (4G 10) or anti-phosphorylated Erk1/Erk2 (New England Biolabs).
(§2) In other experiments, starved NIH 3T3 cells (PDGF-AA, PDGF-BB, aFGF, bFGF), NIH 3T3 cells overexpressing EGFR. IGF-1R or Flk-1 and the human breast carcinoma SkBr3 that overexpresses ErbB2 (HRGβ) are pretreated with GFB-111 (100 μM) for 5 min before 10 min stimulation with the indicated growth factors at the concentrations shown above and aFGF (10 ng/ml), bFGF (50 ng/ml), IGF-1 (50 ng/ml) and HRGβ (10 ng/ml). Cell lysates are then immunoblotted with anti-phospho Erk1/Erk2 as described above.

[2] = test system: VEGF-stimulated MAP kinase activation; assay: Inhibition of VEGF-stimulated MAP kinase (p42/p44, Erk2/Erk1) activation in Flk-1/3T3 cells; settings: Flk-1/3T3, VEGF stimulated
Experimental: as §1, §2
(§3) In order to identify molecules that would bind vascular endothelial growth factor (VEGF), Flk-1/3T3 cell-based assay is used that relies on VEGF-stimulation of its receptor, Flk-1, tyrosine phosphorylation and subsequent MAP-kinase activation. The assay used herein identical to that used for PDGF, except that NIH 3T3 cells that overexpress Flk-1 are used. GFB-116, which has four identical loops with the sequence GKGK (SEQ ID NO. 10) is shown to be very potent and selective toward blocking the ability of VEGF to stimulate Flk-1 tyrosine phosphorylation and subsequent MAP-kinase activation as measured by phospho erk-1 and erk-2 also referred to in the Table as p42 and p44 (Table 4A). A preferred embodiment of the invention is a compound that binds to a vascular endothelial growth factor, of the general structure III (above) in which R is n-butyl, n-propyl, or benzyl, and X comprise covalently attached identical cyclic peptide loops wherein R1, R2, R3, and R4 are each amino acid side chains, as broadly defined above, that define a tetrapeptide sequence, wherein said tetrapeptide is covalently attached at the amino and carboxy termini of said tetrapeptide to 3-aminomethyl-5-aminobenzamide linking group, and wherein said tetrapeptide sequence is GKGK (SEQ ID NO. 10), GDGY (SEQ ID NO. 6), or functionally related derivatives thereof.

[3] = test system: IGF-1 stimulated MAP kinase activation; assay: Inhibition of IGF-1 stimulated MAP kinase (p42/p44) activation in IGFR/3T3 cells; settings: 100 μM; IGFR/3T3, IGF-1 stimulated
Experimental: as §2
(§4) The ability of the GFB library to block the ability of IGF-1 to stimulate the IFG-1 R tyrosine phosphorylation and MAP kinase activation is evaluated using the cell assay described above with IGF-1R/3T3 cells as target cell. […] A preferred embodiment of the invention is a compound that binds to an insulin-like growth factor-1, of the general structure III, wherein R is n-butyl, n-propyl, or benzyl, and X1, X2, X3, and X4 optionally comprise identical cyclic peptide loops of the general structure II, and wherein R1, R2, R3, and R4 are each amino acid side chains that define a tetrapeptide sequence, wherein said tetrapeptide is covalently attached at the amino and carboxy termini of said tetrapeptide to a 3-aminomethyl-5-aminobenzamide linking group.

[4] = test system: IGF-1 stimulated IGF-1R tyrosine phosphorylation; assay: Inhibition of IGF-1 stimulated IGFR tyrosine phosphorylation in IGFR/3T3 cells; settings: for % Inhibition at 100 μM IGF1R-Y-P: IGFR/3T3, IGF-1 stimulated
Experimental: as §4

[5] = test system: PDGF-stimulated PDGFR tyrosine phosphorylation; assay: Inhibition of PDGF-stimulated PDGFR tyrosine phosphorylation in NIH 3T3 cells (anti-phosphotyrosine Western blot); settings: 5 min pretreatment, PDGF 10 ng/ml 10 min, read-out: (IC50) Inhibition PDGFR-Y-P
Experimental: Starved NIH 3T3 cells are pretreated with various growth factor binding agents (0-100 μM) for 5 min before stimulation with PDGF (10 ng/mL) for 10 min. The cells are then harvested and lysed, and the proteins from the lysates separated by SDS-PAGE and immunoblotted with an anti-phosphotyrosine antibody (4G10: Upstate Biotechnology, Lake Placid, N.Y.). The phosphotyrosine PDGF receptor bands are scanned, and the concentrations of growth factor binding molecules that inhibited the ability of PDGF to stimulate PDGFR tyrosine phosphorylation by 50% are determined.
as §1
A novel series of protein surface binding agents are prepared that bind PDGF and disrupt its signaling function. The molecules are composed of a central calix[4] arene scaffold to which is attached four peptide loop domains (FIG. 1). The peptide loop component is based on a cyclic hexapeptide in which two residues are replaced by a 3-aminomethylbenzoate dipeptide mimetic containing a 5-amino substituent for attachment to the scaffold. The resulting molecules (as shown in Table 1) contain a functionalized and variable surface approximately 500 Å^2 in area. Several peptide loop sequences are synthesized (Table 1) to provide molecular surfaces with negatively and positively charged as well as hydrophobic regions designed to bind to complementary areas on the target growth factor. To identify PDGF binding molecules from this library, a cell-based screening assay is developed with NIH 3T3 cells to detect molecules capable of blocking PDGF-BB-induced tyrosine autophosphorylation of the PDGF receptor. The ability of the identified molecules to bind PDGF-BB and inhibit interaction with its receptor is then confirmed biochemically. Starved NIH 3T3 cells are pretreated for 5 min with the synthetic molecules prior to stimulation with PDGF for 10 min. The effects of the molecules on PDGF-stimulated receptor tyrosine phosphorylation are determined by the antiphosphotyrosine Western blotting as described in Table 1. […] GFB-111 has four-fold symmetry containing 4 identical peptide loops with negative and hydrophobic residues, GlyAspGlyTyr (GDGY) (SEQ ID NO. 6), that are designed to be complementary to the PDGF surface involved in binding to PDGFR. The area of PDGF-BB that binds PDGFR is composed primarily of positive and hydrophobic residues.
Starved NIH 3T3 cells are pretreated with the various GFBs (0-100 μM) for 5 min. prior to stimulation with PDGF (10 ng/ml) for 10 min. The cells are then harvested lysed and the proteins from the lysates are separated by SDS-PAGE and immunoblotted with an anti-phosphotyrosine antibody (4G10, Upstate Biotechnology, Lake Placid, N.Y.). The phosphotyrosine PDGF receptor bands are scanned and the concentrations of GFBs that inhibit the ability of PDGF to stimulate PDGFR tyrosine phosphorylation by 50% are determined. Data for each compound is representative of at least two independent experiments. FIG. 1 illustrates the structure of growth factor binders. GFBs are synthesized as described by Park, H. D. et al., Protein surface recognition by synthetic receptors: A route to novel sub-micromolar inhibitors for chymotrypsin. J. Am. Chem. Soc. 121, 8-13 (1999); and Hamuro, Y. et al., A calixarene with four peptide loops: An antibody mimic for recognition of protein surfaces. Angew. Chemie Int. Ed. Engl. 36, 2680-2683 (1997), each herein incorporated by reference in its respective entirety.

[6] = test system: VEGF-stimulated Flk-1 tyrosine phosphorylation; assay: Inhibition of VEGF-stimulated Flk-1 tyrosine phosphorylation in Flk-1/3T3 cells; settings: Flk-1/3T3, VEGF stimulated; read-out: (IC50) Inhibition Flk-1-Y-P
Experimental: as §1, §3

[7] = test system: aFGF-stimulated MAP kinase activation of p42 and p44; assay: Inhibition of aFGF stimulation of p42/p44 MAP kinase in NIH 3T3 cells; settings: NIH 3T3
Experimental: as §2
The ability of growth factor binding agents in the library of growth factor binding agents to block an aFGF signal is measured by aFGF-stimulation of MAP kinase activation of p42 and p44 essentially as described above for VEGF. NIH 3T3 cells are used as the target cell. […] A preferred embodiment of the invention is a compound that binds to acidic fibroblast growth factor, of the general structure III, in which R is n-butyl, n-propyl, or benzyl, and X1, X2, X3, and X4 optionally comprise covalently attached cyclic peptide loops of the general structure II, wherein R1, R2, R3, and R4 are each amino acid side chains that define a tetrapeptide sequence, wherein said tetrapeptide is covalently attached at the amino and carboxy termini of said tetrapeptide to a 3-aminomethyl-5-aminobenzamide linking group, and wherein said tetrapeptide sequence is as given, for example, in Table 5.

[8] = head p42/Erk2 (p42 for GFB-132 to 137), read-out: (IC50) Inhibition p42/Erk2
[9] = read-out: (IC50) Inhibition p42
[10] = read-out: (IC50) Inhibition p44

| Substance | IC50 [1, 8] [µM] | IC50 [2, 9] [µM] | IC50 [2, 10] [µM] | IC50 [5] [µM] | IC50 [6] [µM] | IC50 [1, 10] [µM] | % Inhibition at 100 μM p42 [3] | % Inhibition at 100 μM p44 [3] | % Inhibition at 100 μM IGF1R-Y-P [4] | Blocking IGF-1 action ([4]; IGF-1R/3T3 cells) | Block of aFGF-stimulation of MAP kinase activation of p42 and p44 [7] |
| --- | --- | --- | --- | --- | --- | --- | --- | --- | --- | --- | --- |
| ADGD [GFB-112] | 26 | 10 | 10 | 29 | < 10 |  | −7.6% | 30.4% | 0.6% |  |  |
| GDFD [GFB-102] |  | > 100 | > 100 | > 500 |  |  |  |  |  |  |  |
| GDFD [GFB-105] | 28 | > 100 | > 100 | 2.4 | < 10 |  |  |  | 1.3% |  |  |
| GDGD [GFB-107] | 10 |  |  | 2.5 | < 10 |  | 57.3% | 59.7% |  |  |  |
| GDSD [GFB-113] | 30 | 10 | 10 | 2.8 | < 10 |  | −31.4% | 18.7% | −18.9% |  |  |
| GFGD [GFB-101] | > 500 | > 100 | > 100 | > 500 | > 100 |  |  |  |  |  |  |

Further lines, with some results ahead:

| IC50 [1, 8] [µM] | IC50 [2, 9] [µM] | IC50 [2, 10] [µM] | IC50 [5] [µM] | IC50 [6] [µM] | IC50 [1, 10] [µM] | Substance | % Inhibition at 100 μM p42 [3] | % Inhibition at 100 μM p44 [3] | % Inhibition at 100 μM IGF1R-Y-P [4] | Blocking IGF-1 action ([4]; IGF-1R/3T3 cells) | Block of aFGF-stimulation of MAP kinase activation of p42 and p44 [7] |
| --- | --- | --- | --- | --- | --- | --- | --- | --- | --- | --- | --- |
| 57 | 50 | 50 | 9 | 10 |  | But-Calix scaffold with peptide loops 4-d-ADGD, (D-Ala)-Asp-Gly-Asp (SEQ ID NO. 3) ([dA]DGD; linker N-C via 3‑aminomethyl‑5‑aminobenzamide; also: peptide loops (4) attached to But-Calix scaffold) [GFB-108] | 67.8% | 80.1% |  |  |  |
| 4.6 |  |  | 1.9 |  |  | GDDG [GFB-126] | 63.9% and 47.0% | 71.2% and 79.2% | 51.7% and 51.0% | particularly effective | very effective |
| 3.2 |  |  | 0.8 |  | 3 | GDGY [GFB-133] |  |  |  |  | very effective |
| 1.2 |  |  | 0.7 |  |  | GFB-118: But-Calix scaffold with peptide loops 4-D-2-NalDGD (SEQ ID NO. 17) ([d2Nal]DGD; linker N-C via 3‑aminomethyl‑5‑aminobenzamide; also: four loops attached to But-Calix scaffold) | 16.4% | 55.2% | 1.5% |  |  |
| 8.5 |  |  | 5.6 |  |  | GFB-121: But-Calix scaffold with peptide loops 4-D-AbuDGD (SEQ ID NO. 18) ([dAbu]DGD; linker N-C via 3‑aminomethyl‑5‑aminobenzamide; also: four loops attached to But-Calix scaffold) | 28.3% | 62.1% | 33.8% |  |  |
| > 50 |  |  | > 50 |  |  | GKGF [GFB-115] | −12.4% | 51.9% | −38.3% |  |  |
| 32 |  |  | 20 |  |  | PDGD [GFB-119] | 29.7% | 66.2% | 16.7% |  |  |
